Source: patent US9856290B2, “Glycopeptide compositions and uses thereof” (SUSSEX RESEARCH LABORATORIES INC., priority 2013, dated 2018)
Marks after values point to notes of the source that are not given here. Primed or numbered codes have the meaning given here. The star is where a group is joined. Ac3‑α‑GalNAc = per-acetylated α-N-acetylgalactosamine (O-glycoside), CC(=O)N[C@@H]1[C@@H](OC(C)=O)[C@@H](OC(C)=O)[C@@H](COC(C)=O)O[C@@H]1*; Ac3‑α‑GalNAc″ = peracetylated alpha-N-acetylgalactosamine, CC(=O)N[C@@H]1[C@@H](OC(C)=O)[C@@H](OC(C)=O)[C@@H](COC(C)=O)O[C@@H]1*; Ac3‑β‑GlcNAc = per-acetylated β-N-acetylglucosamine, CC(=O)N[C@@H]1[C@@H](OC(C)=O)[C@H](OC(C)=O)[C@@H](COC(C)=O)O[C@H]1*; αGalNAc = CC(=O)N[C@@H]1[C@@H](O)[C@@H](O)[C@@H](CO)O[C@@H]1*; βGlcNAc = CC(=O)N[C@@H]1[C@@H](O)[C@H](O)[C@@H](CO)O[C@H]1*; αMan = OC[C@H]1O[C@H](*)[C@@H](O)[C@@H](O)[C@@H]1O; βGlc = OC[C@H]1O[C@@H](*)[C@H](O)[C@@H](O)[C@@H]1O; Palmitoyl = CCCCCCCCCCCCCCCC(=O)*

What was measured:
[1] = tested on: Human Dermal Fibroblasts (KMST-6); assay: ECM ELISA assay: fibronectin secretion by human dermal fibroblasts; assay type: cell-based; details: 5 μM, % compared to control set at 100%, normalized to total protein; for Fibronectin secretion at 48 hours: KMST-6, 48 hours; for Fibronectin Secretion at 72 hours: KMST-6, 72 hours
Method: (§1) KMST-6 cells (Japan Health Sciences Foundation, JCRB0433) were seeded at 7,000 cells/ml in 12-well tissue culture treated plates (Falcon, 353043) in complete media. The complete media consisted of the following: MEM/EBSS (Hyclone, SH30024.01), 10% Heat-Inactivated FBS (Gibco, 10082-147), 1% L-Glutamine (Hyclone, SH30031.01), 1% Nucleosides (800 mg/L Adenosine, 850 mg/L Guanidine, 730 mg/L Cytidine, 730 mg/L Uridine and 240 mg/L Thymidine), 1% Penicillin/Streptomycin (HyClone, SV30010), 1% Sodium Pyruvate (HyClone, SH30239.01), 1% Non-Essential Amino Acids (Hyclone, SH30238.01) and 0.04% Gentamicin (Gibco, 15710-064). Cells were grown for 2 days prior to treatments. The media was aspirated and cells were washed with 1×PBS (Fisher, SH30256.01) and treated with 5 μM (1 mL/well) glycopeptides, reference (Pal-KTTKS, CPC Scientific, 822197), and control (DMSO, Fisher, BP231-100) in serum-free media supplemented with 50 μg/mL Sodium Ascorbate (Sigma, A4034) and 80 μg/mL β-Aminopropionate Fumarate (Sigma, A3134). The treated cells were incubated at 37° C. and 5% CO2 for 48 and 72 hours. At each timepoint, media from each treatment was collected and centrifuged at 1500 RPM for 15 minutes at 4° C. The supernatant was collected and stored at −80° C. for extracellular matrix protein quantification. The following kits were used for quantification of ECM proteins: Fibronectin (Takara, MK115) and Elastin (Uscn Life Science Inc., E91337Hu). The cells were harvest and lysed with 250 μL Lysis Buffer (20 mM Tris-HCl (Sigma, T1503), 137 mM NaCl (Sigma, S9888), 2 mM EDTA (Fisher, BP118), 1% IGEPAL (Sigma, 18896), 10% Glycerol (Sigma, G5516), 100 μM PMSF (Fisher, 36978) and 10 μg/mL Leupeptin (Sigma-Aldrich, L2884). They were placed on a container of ice on a plate shaker (Lab-Line Instruments, 3595) for 30 minutes. The lysate was centrifuged at 10,000 g for 5 minutes at 4° C. The supernatant was collected and used for protein quantification (BioRad, 500-0112).
(§2) To determine effects on extracellular matrix protein secretion, 5 μM of individual glycopeptides were incubated with Human Dermal Fibroblasts (KMST-6). The control sample cells were treated with DMSO (Fisher, BP231-100). As described previously, supernatant was collected from treated cells (at two time-points, 48 and 72 hours of treatment) and stored at −80° C. for subsequent extracellular matrix protein quantification using ELISA kits (Fibronectin (Takara, MK115), Elastin (Uscn Life Science Inc., E91337Hu). For the determination of total cellular protein, treated cells were harvested and lysed. The lysate was centrifuged, the supernatant was collected and then used for protein quantification (BioRad, 500-0112). ELISA plates were read on the plate reader (Molecular Devices) at absorbance of 450 nm and SoftMax Pro software was used to compute the μg/ml values of protein of interest derived from the generated 4-parameter fit standard curve. Each μg/ml of protein secreted was normalized to total protein per well. The data was analysed by averaging out normalized values from at least three independent experiments and presenting them as a % compared to control treatment set at 100% (Table 2-5). Statistical significance was performed using One-way ANOVA (p<0.05) where “*” represents statistical significance when compared to control and “#” represents statistical significance when compared to reference. […]

[2] = tested on: Human Dermal Fibroblasts (KMST-6); assay: ECM ELISA assay: elastin secretion by human dermal fibroblasts; assay type: cell-based; details: 5 μM, % compared to control set at 100%, normalized to total protein; for Elastin Secretion at 48 hours: KMST-6, 48 hours; for Elastin Secretion at 72 hours: KMST-6, 72 hours
Method: as §1, §2

Substance	Fibronectin secretion at 48 hours [1]	Fibronectin Secretion at 72 hours [1] [%]	Elastin Secretion at 48 hours [2] [%]	Elastin Secretion at 72 hours [2] [%]
Pal-KT(α-GalNAc)-T(α-GalNAc)KS-OH (Palmitoyl-KT(αGalNAc)T(αGalNAc)KS-OH; SMILES CCCCCCCCCCCCCCCC(=O)N[C@@H](CCCCN)C(=O)N[C@H](C(=O)N[C@H](C(=O)N[C@@H](CCCCN)C(=O)N[C@@H](CO)C(=O)O)[C@@H](C)O[C@H]1O[C@H](CO)[C@H](O)[C@H](O)[C@H]1NC(C)=O)[C@@H](C)O[C@H]1O[C@H](CO)[C@H](O)[C@H](O)[C@H]1NC(C)=O; listed as Homo sapiens) [GP001-14]	104.8%	94.75	88.00	98.25
Pal-KT(α-GalNAc)TKS-OH (Palmitoyl-KT(αGalNAc)TKS-OH; SMILES CCCCCCCCCCCCCCCC(=O)N[C@@H](CCCCN)C(=O)N[C@H](C(=O)N[C@H](C(=O)N[C@@H](CCCCN)C(=O)N[C@@H](CO)C(=O)O)[C@@H](C)O)[C@@H](C)O[C@H]1O[C@H](CO)[C@H](O)[C@H](O)[C@H]1NC(C)=O; listed as Homo sapiens) [GP001-4]	134.2%	112.5	104.5	100.0
Pal-KT(α-Man)TKS-OH (Palmitoyl-KT(αMan)TKS-OH; SMILES CCCCCCCCCCCCCCCC(=O)N[C@@H](CCCCN)C(=O)N[C@H](C(=O)N[C@H](C(=O)N[C@@H](CCCCN)C(=O)N[C@@H](CO)C(=O)O)[C@@H](C)O)[C@@H](C)O[C@H]1O[C@H](CO)[C@@H](O)[C@H](O)[C@@H]1O; listed as Homo sapiens) [GP003-2]	165.0* %	110.3	121.0	160.4
Pal-KT(β-Glc)TKS-OH (Palmitoyl-KT(βGlc)TKS-OH; SMILES CCCCCCCCCCCCCCCC(=O)N[C@@H](CCCCN)C(=O)N[C@H](C(=O)N[C@H](C(=O)N[C@@H](CCCCN)C(=O)N[C@@H](CO)C(=O)O)[C@@H](C)O)[C@@H](C)O[C@@H]1O[C@H](CO)[C@@H](O)[C@H](O)[C@H]1O; listed as Homo sapiens) [GP001-2]	133.0%	115.4	102.8	94.50
Pal-KT(β-GlcNAc)TKS-OH (Palmitoyl-KT(βGlcNAc)TKS-OH; SMILES CCCCCCCCCCCCCCCC(=O)N[C@@H](CCCCN)C(=O)N[C@H](C(=O)N[C@H](C(=O)N[C@@H](CCCCN)C(=O)N[C@@H](CO)C(=O)O)[C@@H](C)O)[C@@H](C)O[C@@H]1O[C@H](CO)[C@@H](O)[C@H](O)[C@H]1NC(C)=O; listed as Homo sapiens) [GP001-6]	123.2%	100.0	91.00	81.50
Pal-KTT(Ac3-α-GalNAc)KS-OH (Palmitoyl-KTT(Ac3‑α‑GalNAc)KS-OH; SMILES CCCCCCCCCCCCCCCC(=O)N[C@@H](CCCCN)C(=O)N[C@H](C(=O)N[C@H](C(=O)N[C@@H](CCCCN)C(=O)N[C@@H](CO)C(=O)O)[C@@H](C)O[C@H]1O[C@H](COC(C)=O)[C@H](OC(C)=O)[C@H](OC(C)=O)[C@H]1NC(C)=O)[C@@H](C)O; listed as Homo sapiens) [GP001-9]	123.4%	104.8	103.7	104.3
Pal-KTT(Ac3-β-GlcNAc)KS-OH (Palmitoyl-KTT(Ac3‑β‑GlcNAc)KS-OH; SMILES CCCCCCCCCCCCCCCC(=O)N[C@@H](CCCCN)C(=O)N[C@H](C(=O)N[C@H](C(=O)N[C@@H](CCCCN)C(=O)N[C@@H](CO)C(=O)O)[C@@H](C)O[C@@H]1O[C@H](COC(C)=O)[C@@H](OC(C)=O)[C@H](OC(C)=O)[C@H]1NC(C)=O)[C@@H](C)O; listed as Homo sapiens) [GP001-11]	111.2%	113.8	114.3	94.75
Pal-KTT(α-GalNAc)KS-OH (Palmitoyl-KTT(αGalNAc)KS-OH; SMILES CCCCCCCCCCCCCCCC(=O)N[C@@H](CCCCN)C(=O)N[C@H](C(=O)N[C@H](C(=O)N[C@@H](CCCCN)C(=O)N[C@@H](CO)C(=O)O)[C@@H](C)O[C@H]1O[C@H](CO)[C@H](O)[C@H](O)[C@H]1NC(C)=O)[C@@H](C)O; listed as Homo sapiens) [GP001-10]	100.2%	104.0	103.0	98.67
Pal-KTT(β-Glc)KS-OH (Palmitoyl-KTT(βGlc)KS-OH; SMILES CCCCCCCCCCCCCCCC(=O)N[C@@H](CCCCN)C(=O)N[C@H](C(=O)N[C@H](C(=O)N[C@@H](CCCCN)C(=O)N[C@@H](CO)C(=O)O)[C@@H](C)O[C@@H]1O[C@H](CO)[C@@H](O)[C@H](O)[C@H]1O)[C@@H](C)O; listed as Homo sapiens) [GP001-8]	106.4%	106.2	94.25	91.25
Pal-KTT(β-GlcNAc)KS-OH (Palmitoyl-KTT(βGlcNAc)KS-OH; SMILES CCCCCCCCCCCCCCCC(=O)N[C@@H](CCCCN)C(=O)N[C@H](C(=O)N[C@H](C(=O)N[C@@H](CCCCN)C(=O)N[C@@H](CO)C(=O)O)[C@@H](C)O[C@@H]1O[C@H](CO)[C@@H](O)[C@H](O)[C@H]1NC(C)=O)[C@@H](C)O; listed as Homo sapiens) [GP001-12]	106.5%	89.25	73.00	76.75
Pal-KTTKS(Ac3-α-GalNAc)-OH (Palmitoyl-KTTKS(Ac3‑α‑GalNAc″)-OH; SMILES CCCCCCCCCCCCCCCC(=O)N[C@@H](CCCCN)C(=O)N[C@H](C(=O)N[C@H](C(=O)N[C@@H](CCCCN)C(=O)N[C@@H](CO[C@H]1O[C@H](COC(C)=O)[C@H](OC(C)=O)[C@H](OC(C)=O)[C@H]1NC(C)=O)C(=O)O)[C@@H](C)O)[C@@H](C)O; listed as Homo sapiens) [GP002-1]	114.7%	108.0	144.8	145.5
Pal-KTTKS(Ac3-β-GlcNAc)-OH (Palmitoyl-KTTKS(Ac3‑β‑GlcNAc)-OH; SMILES CCCCCCCCCCCCCCCC(=O)N[C@@H](CCCCN)C(=O)N[C@H](C(=O)N[C@H](C(=O)N[C@@H](CCCCN)C(=O)N[C@@H](CO[C@@H]1O[C@H](COC(C)=O)[C@@H](OC(C)=O)[C@H](OC(C)=O)[C@H]1NC(C)=O)C(=O)O)[C@@H](C)O)[C@@H](C)O; listed as Homo sapiens) [GP002-5]	111.3%	104.2	159.3	137.3
